Patent US12691084B2, “Pharmaceutical composition for preventing or treating bone diseases” (INDUSTRY FOUNDATION OF CHONNAM NATIONAL UNIVERSITY, priority 2019, dated 2026)
Entries after “also recorded” stand apart in the source; their conditions may differ.

Assays:
[1] = ADME evaluation (DGMIF), overall conclusion on toxicity; assay type: in vitro ADME; details: conclusion from ADME evaluation
Experimental: (§1) In order to analyze the drug metabolism of PMSA compound, ADME evaluation was requested to the Daegu-Gyeongbuk Advanced Medical industry Promotion Foundation (DGMIF). Metabolic stability of drugs using liver microsomes (microsomal stability), drug metabolism inhibitory ability by five CYP450 enzymes, plasma metabolism (plasma stability), plasma protein binding, and intestinal permeability of drugs (PAMPA, parallel artificial membrane permeability assay) were analyzed. […] Further, it was confirmed that the permeability resistance was excellent (see Table 3 below). On the other hand, for one of PMSA derivatives, that is, 2-(N-(3,5-dimethylphenyl)methylsulfinamido)-N-(2 (phenylthio)phenyl)propanamide (#25-D5), intestinal permeability of the drug (PAMPA) was not measured.

[2] = PAMPA, parallel artificial membrane permeability assay; assay type: in vitro ADME; details: for Papp: PAMPA, criterion >40, read-out: PAMPA (>40) Pe; for permeability resistance: conclusion from ADME evaluation
Experimental: as §1

NFATc1 = assay: Intranuclear migration of transcription factors, western blotting of nuclear and cytoplasmic proteins; assay type: cell-based, mouse; details: osteoclasts differentiated by RANKL for 3 days
Description: In order to further confirm the inhibitory effect of the PMSA compound on osteoclast differentiation, the intranuclear migration of transcription factors NFATc1 and NF-kB and the expression degree of osteoclast-specific genes regulated by the transcription factors were investigated.
First, in order to confirm the intranuclear migration of transcription factors, osteoclasts differentiated by RANKL for 3 days were separated into nuclear protein and cytoplasmic protein using a NE-PER kit (ThermoFisher scientific 78833). Then, the expression of each of NFATc1 and NF-kB in each organelle was investigated through western blotting.

ovariectomized mouse = assay: Ovariectomized (OVX) mouse osteoporosis model, tibia microcomputer tomography; assay type: in vivo
Experimental: In order to confirm in vivo efficacy of the PMSA compound, an ovariectomized animal model (OVX, ovariectomized mouse) with osteoporosis due to estrogen deficiency after ovariectomy in 8-week-old female mouse was prepared. #25 (PMSA-3-Ac, 25 mg/kg) or #25-D12 (PMSA-2-OMe-5-Cl, 20 mg/kg) were injected intraperitoneally once every two days to the ovariectomized mouse model. After 4 weeks, the tibia of the mouse was analyzed for bone density by microcomputer tomography.

mouse bone marrow cells = assay: F-actin staining, actin-ring formation; assay type: cell-based; details: 6 uM, 4 to 5 days
Experimental: In order to determine the activity of differentiated osteoclasts, an ability to differentiate the cells into multinuclear cells was firstly confirmed through F-actin staining. Specifically, 5×10^4 mouse hone marrow cells per well were put into a 24-well plate in which glass coated with L-Lysine was placed (Corning, 354085). Simultaneously, the cells were treated with PSTP-3,5-Me 6 uM and cultured for 4 to 5 days. The differentiated cells were fixed with 4% formaldehyde for 10 minutes and washed with PBS. For the antigen-antibody reaction, a reaction was conducted in 0.1% Triton-PBS for 20 minutes, followed by reacting the same in 1% BSA for 1 hour. Thereafter, the F-actin antibody (Thermo Fisher Scientific, A12379) was reacted for 1 hour and than washed. Cell nuclei were stained through 4′,6-diamidino-2-phenylindole (DAPI, Dilactate, Thermo Fisher Scientific, D3571) staining, and then photographed under a microscope. As a result, it was confirmed by comparing shies of F-actin that PSTP-3,5-Me inhibited differentiation into multinuclear cells.

[3] = system: monocytes isolated from mouse bone marrow; assay: MTT assay for cytotoxicity evaluation (cell viability); assay type: cell-based; details: 3-10 μM; 4 days
Experimental: 1×10^4 monocytes isolated from mouse bone marrow per well were put into a 96-well plate, and in order to assess cell viability, the cells were cultured for 4 days while being treated with PSTP-3,5-Me at different concentrations (3-10 μM). A cell viability assay reagent (DoGen, EZ-3000) was used for treatment with 1/10 of the volume of the medium, and the cells were cultured at 37° C. for 30 minutes and confirmed at […]. […] In other words, it is understood that no cytotoxicity appeared.

[4] = 20 mg/kg intraperitoneally once every two days, 4 weeks, tibia, compared to control (OVX)

Structure (SMILES)	toxicity [1]	Papp [2]	permeability resistance [2]	NFATc1 expression in the nucleus (NFATc1)	bone density and bone volume (ovariectomized mouse; 20 mg/kg intraperitoneally once every two days, 4 weeks, compared to control (OVX))	bone volume (BV) increase (ovariectomized mouse; [4])	cortical volume (Ct.V) increase (ovariectomized mouse; [4])	total bone volume (TV) increase (ovariectomized mouse; [4])	trabecular bone mineral density (Th. BMD) increase (ovariectomized mouse; [4])	trabecular volume (Th.V) increase (ovariectomized mouse; [4])	bone loss (ovariectomized mouse; OVX mouse model)	differentiation into multinuclear cells (F-actin) (mouse bone marrow cells)	actin-ring formation (mouse bone marrow cells; compared to control)	cell viability [3]
CC(=O)c1cccc(N(CC(=O)Nc2ccccc2Sc2ccccc2)S(C)(=O)=O)c1 [#25, 2-(N-(3-acetylphenyl)methylsulfonamido)-N-(2-(phenylthio)phenyl)acetamide]	low toxicity	59.4 ± 1.6 ×10⁻⁶ cm/s	excellent	less expressed in the nucleus	–	–	–	–	–	–	–	–	–	–
COc1ccc(Cl)cc1N(CC(=O)Nc1ccccc1Sc1ccccc1)S(C)(=O)=O [#25-D12, 2-(N-(5-chloro-2-methoxyphenyl)methylsulfonamido)-N-(2-(phenylthio)phenyl)acetamide]	low toxicity	49 ± 2 ×10⁻⁶ cm/s	excellent	less expressed in the nucleus	higher	6.9%	5.4%	5.4%	42.3%	2.7 times	preventing bone loss in the trabecular bone portion; also recorded: effectively reduced bone loss	–	–	–
Cc1cc(C)cc(N([C@@H](C)C(=O)Nc2ccccc2Sc2ccccc2)S(C)(=O)=O)c1 [#25-D5, N^2-(3,5-dimethylphenyl)-N^2-(methylsulfonyl)-N-[2-(phenylthio)phenyl]alanineamide]	–	–	–	–	–	–	–	–	–	–	–	inhibited	small-sized actin-ring structure	did not affect cell viability
